Where “and” joins values, the source holds several entries; their conditions need not be identical. Identical values can stand only once.
How the values were obtained:
[1] = target: T1, SEQ ID 35, mutant bx-type glucosyl transferase (Zea mays, UniProt Q8W2B7, A437P); assay: LC/MS glucosyl transferase assay (glucoside peak area), purified enzyme; assay type: biochemical; settings: about 60 min, ~15 pmol enzyme, relative quantification only
T1 construct: 35; 3.66E+05; 8.20E+07; 5.96E+06; His tag; made in house

[2] = test system: SEQ ID 43, mutant bx-type glucosyl transferase; assay: as above; assay type: biochemical; settings: about 60 min, ~15 pmol enzyme, nd = not detectable
[3] = test system: SEQ ID 45, mutant bx-type glucosyl transferase; assay: as above; assay type: biochemical; settings: about 60 min, ~15 pmol enzyme, nd = not detectable
[4] = test system: transgenic tobacco plants expressing zmBX9 (SEQ ID No 1); assay: Glass house spray test on tobacco, percent damage; assay type: in vivo; settings: for percent damage: 14 DAT, tobacco expressing SEQ ID NO 1, lines 6266 and 6291, clonal plants A-E
Description: (§1) In the present example, Zea mays BX8 or BX9 or orthologues of BX8/9, for example SEQ ID Nos. 1-59 and various herbicide-active mutations and combinations of mutations thereof (e.g. as listed in Tables 1-9) are expressed in transgenic tobacco. DNA sequences that encode these polypeptides (optimized for tobacco or, optionally, codon optimized according to a target crop such as soybean) are prepared synthetically and obtained commercially from Genewiz (South Plainfield, USA). Each sequence is designed to include a 5′ fusion with TMV omega 5′ leader (SEQ ID NO: 109). The DNA sequences are flanked at the 5′ end with XhoI and at the 3′ end with KpnI to facilitate direct cloning into a suitable binary vector for Agrobacterium-based plant transformation.
In a particular example, the expression cassette, comprising the TMV omega 5′ leader and a BX encoding gene of interest is excised using XhoI/KpnI and cloned into similarly digested pBIN 19 (Bevan, Nucl. Acids Res. (1984) behind a double enhanced 35S promoter (SEQ ID NO:110) and ahead of a NOS 3′ transcription terminator (SEQ ID NO:111) and then transformed into E. coli DH5 alpha competent cells (see FIG. 5). DNA recovered from the E. coli is used to transform Agrobacterium tumefaciens LBA4404, and the transformed bacteria are selected on media contain rifampicin and kanamycin. Tobacco tissue is subjected to Agrobacterium-mediated transformation using methods well described in the art or as described herein. For example, a master plate of Agrobacterium tumefaciens containing the BX glucosyltransferase expressing binary vector is used to inoculate 10 ml LB (L broth) containing 100 mg/l Rifampicin plus 50 mg/l Kanamycin using a single bacterial colony. This is incubated overnight at 28° C. shaking at 200 rpm. This entire overnight culture is used to inoculate a 50 ml volume of LB containing the same antibiotics. Again this is cultured overnight at 28° C. shaking at 200 rpm. The Agrobacterium cells are pelleted by centrifuging at 3000 rpm for 15 minutes and then resuspended in MS (Murashige and Skoog) medium containing 30 g/l sucrose, pH 5.9 to an OD (600 nM)=0.6. This suspension is dispensed in 25 ml aliquots into petri dishes.
Once rooted, plantlets are transferred from agar and potted into 50% peat, 50% John Innes Soil No. 3 with slow-release fertilizer in 3 inch round pots and left regularly watered to establish for 8-12d in the glass house. Glass house conditions are about 24-27° C. day; 18-21° C. night and approximately a 14h photoperiod. […]
Three transgenic populations of about forty tobacco plants and comprising, a glucosyl transferase gene encoding either zmBX8 (SEQ ID NO 2) or zmBX9 (SEQ ID NO 1) were thus produced. […] Plants were assessed for damage and scored at 7 and 14 days after treatment (DAT). […]

[5] = test system: transgenic tobacco plants expressing zmBX8 (SEQ ID No 2); assay: Glass house spray test on tobacco, percent damage; assay type: in vivo; settings: 30 g/ha
Description: as §1, with “transformation. […]” for “transformation.”
Three transgenic populations of about forty tobacco plants and comprising, a glucosyl transferase gene encoding either zmBX8 (SEQ ID NO 2) or zmBX9 (SEQ ID NO 1) were thus produced. […] Plants were assessed for damage and scored at 7 and 14 days after treatment (DAT).

[6] = test system: transgenic tobacco plants expressing SEQ ID NO1 or SEQ ID NO 17; assay: LC/MS of foliar extracts after herbicide treatment; assay type: in vivo; settings: 24 and 48 h after treatment, 80% acetonitrile/water extract
Description: The expected glucosides of herbicides V and VI corresponding to those seen in vitro are also similarly produced in transgenic […] plants expressing Zea mays BX9 or expressing mutant derivatives of Zea mays BX9. For example, LC/MS analysis of extracts of leaves obtained by maceration and extraction into 80% acetonitrile/water 24 and 48 h after treatment with herbicides V and VI indicate that the same beta-glucosides that are produced by the enzymes in vitro are produced in planta.

T1 sequence (Q8W2B7 whole entry A437P): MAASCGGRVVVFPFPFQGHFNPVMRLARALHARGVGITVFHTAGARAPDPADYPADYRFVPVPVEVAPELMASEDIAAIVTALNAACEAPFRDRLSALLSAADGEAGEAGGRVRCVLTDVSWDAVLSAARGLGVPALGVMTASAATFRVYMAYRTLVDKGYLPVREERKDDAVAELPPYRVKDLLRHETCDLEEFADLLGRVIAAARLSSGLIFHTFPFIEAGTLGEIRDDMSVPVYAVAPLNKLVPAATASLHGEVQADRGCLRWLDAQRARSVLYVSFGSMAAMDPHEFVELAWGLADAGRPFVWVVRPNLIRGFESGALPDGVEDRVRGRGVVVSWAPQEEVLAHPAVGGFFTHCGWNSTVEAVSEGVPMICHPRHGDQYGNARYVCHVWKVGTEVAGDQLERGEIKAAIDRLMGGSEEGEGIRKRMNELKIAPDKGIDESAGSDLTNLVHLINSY

CN1CC(O)N(c2cc(C(F)(F)F)ccn2)C1=O (stereo not drawn) [Compound V]
integrated peak area of beta-glucoside product [1]: 5.96E+06 and 4.40E+06
integrated peak area of beta-glucoside product [2]: 3.88E+05 and 2.26E+05
integrated peak area of beta-glucoside product [3]: 1.56E+05 and 9.51E+04
percent damage ([4]; 500 gai/ha V): 100% and 80%

CON1C(=O)N(c2cc(C(F)(F)F)ccn2)C(O)[C@@H]1C (stereo partly drawn) [Compound VI]
tolerance [5]: little or no tolerance
tolerance ([4]; 30 g/ha, several transgenic lines): demonstrate tolerance
percent damage ([4]; 500 gai/ha VI): 95% and 90% and 100% and 60% and 70% and 75% and 80%
tolerance ([4]; high rates, best two events): only partial tolerance
glucoside found in foliar extract [6]: mainly the S-beta stereoisomer O-glucoside product of VI
